One data set concerns CHO-K1 cells. As to the kind of experiment: Micronucleus assay (MNT) in vitro. On the set-up: key: A: negative, putative negative (micronuclei detected beyond threshold of 60% cyctotoxicity); B: positive. As to conditions: 24 hrs treatment, 0.2 μM to 100 μM. Type of data set: cell-based.
The target of a further data set is ACSS2 (Homo sapiens (Human), UniProt Q9NR19). The experiment in a line: Cellular assay of 14C acetate incorporation into histones (IC50 ACSS2 cellular histone). In kind it is cell-based. As to conditions: HCT-15 cells. The essentials: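 HCT-15 cells preincubated 1 h with compound (0.25% DMSO), then pulsed 3 h with 14C-acetate in full DMEM/10% FBS. Histones acid-extracted (0.2 M HCl, overnight, 4 °C) after Triton lysis in sodium butyrate buffer; incorporated 14C counted by scintillation (CPM) to give IC50.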

For a further data set, the target named is human rec ACSS2 (Homo sapiens (Human), UniProt Q9NR19). As to the kind of experiment: Biochemical activity ACSS2 assay (AMP-Glo). As to conditions: human recombinant ACSS2, AMP-Glo, 180 min at 37° C. The essentials:
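1 nM C-term myc-tagged recombinant human ACSS2 with 100 μM ATP, 100 μM Coenzyme A and 500 μM acetate (final concentrations), pH 7.5, 180 min at 37° C, compound from 30 μM over 10 concentrations. Released AMP quantified by AMP-Glo luminescence; zero set with 5 μM reference ACSS2 inhibitor, IC50 derived.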

Structures are written as SMILES.

Sequence of human rec ACSS2 (Q9NR19 whole entry): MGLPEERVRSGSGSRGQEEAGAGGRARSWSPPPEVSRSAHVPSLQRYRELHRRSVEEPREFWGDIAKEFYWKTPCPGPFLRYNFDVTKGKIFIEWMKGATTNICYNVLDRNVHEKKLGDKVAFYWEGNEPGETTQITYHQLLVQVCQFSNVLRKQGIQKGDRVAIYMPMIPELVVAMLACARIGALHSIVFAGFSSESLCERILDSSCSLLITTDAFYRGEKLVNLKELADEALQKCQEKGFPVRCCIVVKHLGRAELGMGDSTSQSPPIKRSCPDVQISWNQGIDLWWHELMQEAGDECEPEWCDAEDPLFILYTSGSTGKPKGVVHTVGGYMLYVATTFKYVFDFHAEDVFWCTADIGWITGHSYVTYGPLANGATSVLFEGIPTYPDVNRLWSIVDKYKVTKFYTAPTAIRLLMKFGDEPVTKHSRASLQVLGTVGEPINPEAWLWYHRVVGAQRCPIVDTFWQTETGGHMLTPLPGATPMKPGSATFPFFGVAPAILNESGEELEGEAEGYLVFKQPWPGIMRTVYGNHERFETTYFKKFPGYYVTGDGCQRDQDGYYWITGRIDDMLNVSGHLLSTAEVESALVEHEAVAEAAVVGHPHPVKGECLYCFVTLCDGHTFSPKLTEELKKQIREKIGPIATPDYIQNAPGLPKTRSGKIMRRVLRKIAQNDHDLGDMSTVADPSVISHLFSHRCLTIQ
Sequence of ACSS2 (Q9NR19 whole entry): as above

The term IC50 denotes the concentration at which inhibition is half-maximal. With `CCn1c(C(O)(c2ccccc2F)c2ccccc2F)nc2nc(OC)c(-c3nnn[nH]3)cc21` [Compound 57, [1-ethyl-5-methoxy-6-(1H-1,2,3,4-tetrazol-5-yl)-1H-imidazo[4,5-b]pyridin-2-yl]bis(2-fluorophenyl)methanol], in the data set with CHO-K1 cells, the MNT result is “A”. Moreover, the IC50 on ACSS2 was in the range of 1 to 10 nM; at human rec ACSS2 it was 0.01 to 1 nM.
Taken in the same sequence, the figures for `CCc1c(C(O)(c2ccccc2)c2ccccc2)nc2cc(F)c(-c3nnn[nH]3)cn12` [Compound 3, [3-Ethyl-7-fluoro-6-(1H-tetrazol-5-yl)-imidazo[1,2-a]pyridin-2-yl]-diphenyl-methanol] were “A”, 100 to 10000 nM and 1 to 10 nM.
Taken in the same sequence, the figures for `CCn1c(C(O)(c2ccccc2)c2ccccc2)nc2nc(Cl)c(-c3nnn[nH]3)cc21` [Compound 51, [5-chloro-1-ethyl-6-(1H-1,2,3,4-tetrazol-5-yl)-1H-imidazo[4,5-b]pyridin-2-yl]diphenylmethanol] were “A”, 10 to 100 nM and 1 to 10 nM.
For the molecule `CCc1c(C(O)(c2ccccc2)c2ccccc2)nn2cc(OC)c(-c3nnn[nH]3)cc12` [Compound 22, [3-Ethyl-6-methoxy-5-(1H-tetrazol-5-yl)-pyrazolo[1,5-a]pyridin-2-yl]-diphenyl-methanol], the MNT result with CHO-K1 cells was “A”. Also, the IC50 against ACSS2 and at human rec ACSS2 was 1 to 10 nM throughout.
In the case of `CCn1c(C(O)(c2ccccc2)c2ccccc2)nc2nc(C)c(-c3nnn[nH]3)cc21` [Compound 62, [1-ethyl-5-methyl-6-(1H-1,2,3,4-tetrazol-5-yl)-1H-imidazo[4,5-b]pyridin-2-yl]diphenylmethanol], in the data set with CHO-K1 cells, the MNT result is recorded as “A”. The figures for the half-maximal inhibitory concentration (IC50) on ACSS2 and at human rec ACSS2 were 100 to 10000 nM and 1 to 10 nM, respectively.
In the case of `CCc1c(C(O)(c2ccccc2F)c2ccccc2F)nn2cc(OC)c(-c3nnn[nH]3)cc12` [Compound 19, [3-Ethyl-6-methoxy-5-(1H-tetrazol-5-yl)-pyrazolo[1,5-a]pyridin-2-yl]-bis-(2-fluoro-phenyl)-methanol], the MNT result in the data set with CHO-K1 cells is recorded as “A”. Further, the IC50 at ACSS2 was 10 to 100 nM; at human rec ACSS2, 1 to 10 nM.
Consider `CCn1c(C(O)(c2ccccc2)c2cccs2)nc2nc(OC)c(-c3nnn[nH]3)cc21` (racemic) [Compound 35, [1-ethyl-5-methoxy-6-(1H-1,2,3,4-tetrazol-5-yl)-1H-imidazo[4,5-b]pyridin-2-yl](phenyl)(thiophen-2-yl)methanol], for which, in the data set with CHO-K1 cells, the MNT result is “A”. Also, the IC50 on ACSS2 and at human rec ACSS2 was 1 to 10 nM throughout.
Take `COc1nc2nc(C(O)(c3ccccc3)c3ccccc3)n(CCO)c2cc1-c1nnn[nH]1` [Compound 34, 2-[2-(hydroxy-diphenylmethyl)-5-methoxy-6-(1H-1,2,3,4-tetrazol-5-yl)-1H-imidazo[4,5-b]pyridin-1-yl]ethan-1-ol]: the MNT result in the data set with CHO-K1 cells was “A”. The IC50 at ACSS2 lay within 100 to 10000 nM; at human rec ACSS2, 1 to 10 nM.
Regarding `CCc1c(C(O)(c2ccccc2)c2ccccn2)nc2cc(OC)c(-c3nnn[nH]3)cn12` (single isomer, unassigned) [Compound 11, [3-Ethyl-7-methoxy-6-(1H-tetrazol-5-yl)-imidazo[1,2-a]pyridin-2-yl]-phenyl-pyridin-2-yl-methanol], the MNT entry in the data set with CHO-K1 cells is listed as “A”. Moreover, the IC50 on ACSS2 fell in the range of 10 to 100 nM; at human rec ACSS2 it was 1 to 10 nM.
Consider `CCn1c(C(O)(c2ccccc2)c2ccccc2)nc2ncc(-c3nnn[nH]3)cc21` [Compound 60, [1-ethyl-6-(1H-1,2,3,4-tetrazol-5-yl)-1H-imidazo[4,5-b]pyridin-2-yl]diphenylmethanol], for which the MNT result in the data set with CHO-K1 cells is “A”. In addition, the concentration for half-maximal inhibition (IC50) against ACSS2 lay within 100 to 10000 nM; on human rec ACSS2, 10 to 100 nM.
Take `CCc1c(C(O)(c2ccccc2)c2ccccc2)nc2cc(OC)c(-c3nnn[nH]3)cn12` [Compound 2, [3-Ethyl-7-methoxy-6-(1H-tetrazol-5-yl)-imidazo[1,2-a]pyridin-2-yl]-diphenyl-methanol]: the MNT entry with CHO-K1 cells is “A”. The IC50 on ACSS2 and on human rec ACSS2 was 1 to 10 nM in each case.
In the case of `CCn1c(C(O)(c2ccccc2)c2ccccn2)nc2nc(OC)c(-c3nnn[nH]3)cc21` (single isomer, unassigned) [Compound 40, [1-ethyl-5-methoxy-6-(1H-1,2,3,4-tetrazol-5-yl)-1H-imidazo[4,5-b]pyridin-2-yl](phenyl)(pyridin-2-yl)methanol], the MNT result in the data set on CHO-K1 cells is on record as “A”. The IC50 was 0.01 to 1 nM against ACSS2 and 1 to 10 nM at human rec ACSS2.
Consider `CCn1c(C(O)(c2ccccc2)c2ccccn2)nc2nc(OC)c(-c3nnn[nH]3)cc21` (racemic) [Compound 50, [1-ethyl-5-methoxy-6-(1H-1,2,3,4-tetrazol-5-yl)-1H-imidazo[4,5-b]pyridin-2-yl](phenyl)(pyridin-2-yl)methanol], for which, in the data set with CHO-K1 cells, the MNT result is listed as “A”. The IC50 against ACSS2 fell in the range of 0.01 to 1 nM; on human rec ACSS2, 1 to 10 nM.
For `CCc1c(C(O)(c2ccccc2)c2ccccc2)nc2ccc(-c3nnn[nH]3)cn12` [Compound 4, [3-Ethyl-6-(1 H-tetrazol-5-yl)-imidazo[1,2-a]pyridin-2-yl]-diphenyl-methanol], in the data set on CHO-K1 cells, the MNT result is reported as “A”. Besides, the values for the IC50 against ACSS2 and at human rec ACSS2 were 100 to 10000 nM and 10 to 100 nM, respectively.
Taken in the same sequence, the figures for `CCn1c(C(O)(c2ccccc2)c2ncccn2)nc2nc(OC)c(-c3nnn[nH]3)cc21` (racemic) [Compound 37, [1-ethyl-5-methoxy-6-(1H-1,2,3,4-tetrazol-5-yl)-1H-imidazo[4,5-b]pyridin-2-yl](phenyl)(pyrimidin-2-yl)methanol] were “A”, 1 to 10 nM and 1 to 10 nM.
As for `CCc1c(C(O)(c2ccccc2)c2ccccc2)nc2cc(Cl)c(-c3nnn[nH]3)cn12` [Compound 9, [7-Chloro-3-ethyl-6-(1H-tetrazol-5-yl)-imidazo[1,2-a]pyridin-2-yl]-diphenyl-methanol], the MNT entry in the data set with CHO-K1 cells was “A”. The IC50 against ACSS2 lay within 100 to 10000 nM; on human rec ACSS2, 1 to 10 nM.
In the case of `CCc1c(C(O)(c2ccccc2F)c2ccccc2F)nc2cc(Cl)c(-c3nnn[nH]3)cn12` [Compound 5, [7-Chloro-3-ethyl-6-(1H-tetrazol-5-yl)-imidazo[1,2-a]pyridin-2-yl]-bis-(2-fluoro-phenyl)-methanol], in the data set with CHO-K1 cells, the MNT result was “A”. Further, the results for the concentration for half-maximal inhibition (IC50) against ACSS2 and at human rec ACSS2 were 100 to 10000 nM and 1 to 10 nM, respectively.
`CCn1c(C(O)(c2ccccc2)c2ccccc2)nc2nc(OC)c(-c3nnn[nH]3)cc21` [Compound 58, [1-ethyl-5-methoxy-6-(1H-1,2,3,4-tetrazol-5-yl)-1H-imidazo[4,5-b]pyridin-2-yl]diphenylmethanol]: the MNT result in the data set with CHO-K1 cells is “A”. The IC50 against ACSS2 and at human rec ACSS2 was 0.01 to 1 nM throughout.
Consider `CCc1c(C(O)(c2ccccc2)c2ccccc2)nn2cc(Cl)c(-c3nnn[nH]3)cc12` [Compound 21, [6-Chloro-3-ethyl-5-(1H-tetrazol-5-yl)-pyrazolo[1,5-a]pyridin-2-yl]-diphenyl-methanol], for which the MNT result in the data set with CHO-K1 cells is reported as “A”. Besides, the IC50 against ACSS2 is 10 to 100 nM; on human rec ACSS2 it was 1 to 10 nM.
As for `CCn1c(C(O)(c2ccccc2F)c2ccccc2F)nc2nc(C)c(-c3nnn[nH]3)cc21` [Compound 59, [1-ethyl-5-methyl-6-(1H-1,2,3,4-tetrazol-5-yl)-1H-imidazo[4,5-b]pyridin-2-yl]bis(2-fluorophenyl)methanol], the MNT result in the data set on CHO-K1 cells is on record as “A”. Moreover, the IC50 lay in the range of 100 to 10000 nM on ACSS2 and 1 to 10 nM at human rec ACSS2.
For `CCc1c(C(O)(c2ccccc2F)c2ccccc2F)nc2cc(OC)c(-c3nnn[nH]3)cn12` [Compound 6, [3-Ethyl-7-methoxy-6-(1H-tetrazol-5-yl)-imidazo[1,2-a]pyridin-2-yl]-bis-(2-fluoro-phenyl)-methanol], the MNT result in the data set with CHO-K1 cells is “A”. The IC50 on ACSS2 and on human rec ACSS2 was 1 to 10 nM in each case.
Regarding `CCn1c(C(O)(c2ccccc2)c2ccccc2)nc2ccc(C(=O)NC[C@@H](C)O)cc21` [Reference Compound, 3-Ethyl-2-[hydroxy(diphenyl)methyl]-N-[(2R)-2-hydroxypropyl]benzimidazole-5-carboxamide, reference compound], the MNT entry with CHO-K1 cells is “B”. Moreover, the results for the IC50 on ACSS2 and on human rec ACSS2 were 0.01 to 1 nM and 100 to 10000 nM, respectively.
On to `CCn1c(C(O)(c2cccs2)c2cccs2)nc2nc(OC)c(-c3nnn[nH]3)cc21` [Compound 38, [1-ethyl-5-methoxy-6-(1H-1,2,3,4-tetrazol-5-yl)-1H-imidazo[4,5-b]pyridin-2-yl]bis(thiophen-2-yl)methanol], for which, in the data set with CHO-K1 cells, the MNT result is reported as “A”. In addition, the figures for the IC50 against ACSS2 and at human rec ACSS2 were 100 to 10000 nM and 1 to 10 nM, respectively.

The values are drawn from US20240009175A9, “TETRAZOLE DERIVATIVES” (Merck Patent GmbH, priority 2020, published 2024).
